The target in assay [1] is SOS1 nucleotide exchange of wild-type KRAS (Homo sapiens (Human), UniProt Q07889). As to the kind of experiment: Mode of action assay: inhibition of SOS1 nucleotide exchange activity (TR-FRET). In kind it is biochemical. The conditions noted are these: SOS1 catalytic domain (564-1049), avi-tagged KRAS (1-169), EDA-GTP-DY-647P1; three replicates. For orientation: Time-resolved FRET reads energy transfer from a long-lived donor to a nearby acceptor.

Assay [2] concerns the target SOS1 catalytic domain (residues 564-1049) (Homo sapiens (Human), UniProt Q07889). As to the kind of experiment: Potency assay: binding affinity to SOS1 by Surface Plasmon Resonance (SPR). The note with it: avi-tagged SOS1 catalytic domain immobilized on sensor chip; 1:1 equilibrium binding fit.
The test system of assay [3] is cellular pERK in PC-9 cells (EGFR Ex19Del). In words: Potency assay: pERK (AlphaLISA SureFire Ultra p-ERK1/2) in PC-9 cells. Format: cell-based. The conditions noted are these: read-out: SOS1 pERK IC50.
[4] abbreviates: Homo sapiens, PC-9, 1 h, PC-9 cells (EGFR Ex19Del), 1 hour incubation, AlphaLISA SureFire Ultra p-ERK1/2.
Where [5] appears, read: PC-9 cells (EGFR Ex19Del), 1 hour incubation, AlphaLISA SureFire Ultra p-ERK1/2.

Structures are written as SMILES. Read-outs that look alike come from different tables or passages of the source.

SOS1 catalytic domain (residues 564-1049), sequence (Q07889 564-1049): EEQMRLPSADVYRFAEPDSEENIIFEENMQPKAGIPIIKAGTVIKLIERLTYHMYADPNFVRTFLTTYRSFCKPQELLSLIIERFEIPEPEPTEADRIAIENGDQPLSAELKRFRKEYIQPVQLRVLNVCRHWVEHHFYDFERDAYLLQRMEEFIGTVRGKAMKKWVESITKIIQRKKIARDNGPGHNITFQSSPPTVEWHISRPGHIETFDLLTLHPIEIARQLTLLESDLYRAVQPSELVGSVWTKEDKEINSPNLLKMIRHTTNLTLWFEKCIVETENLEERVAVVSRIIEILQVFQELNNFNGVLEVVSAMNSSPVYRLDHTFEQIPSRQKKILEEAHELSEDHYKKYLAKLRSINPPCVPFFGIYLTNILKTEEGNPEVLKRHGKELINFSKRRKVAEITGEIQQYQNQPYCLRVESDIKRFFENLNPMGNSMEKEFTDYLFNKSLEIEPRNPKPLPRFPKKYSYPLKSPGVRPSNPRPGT
SOS1 nucleotide exchange of wild-type KRAS, sequence (Q07889 564-1049): as above

Compound `Cc1nc(N[C@H](C)c2cccc(C(F)F)c2F)c2cc(-c3cncnc3)c(=O)n(C)c2n1` [Example 21-4] yielded an IC50 in assay [1] of 172 nM. This compound registered a Kd in assay [2] of 272 nM.
`C[C@@H](Nc1ncnc2c1cc(C(=O)N1CCN(C)c3ncccc31)c(=O)n2C)c1cccc(C(F)F)c1F` [Example 26-49]: the IC50 in assay [1] came to 176 nM; in assay [3] (setting [4]) it was 959 nM. The compound further showed a dissociation constant Kd in assay [2] of 311 nM.
The corresponding values for `C[C@@H](Nc1ncnc2c1cc(C(=O)N1CCn3ccnc3C1)c(=O)n2C)c1cccc(C(F)F)c1F` [Example 26-31] are 230 nM, 2820 nM and 322 nM.
In assay [1], `C[C@@H](Nc1ncnc2c1cc(C1CCN(CCF)CC1)c(=O)n2C)c1cccc(C(F)F)c1F` [Example 8-4] yielded an IC50 of 7.66 nM. The compound also returned a Kd in assay [2] of 29.4 nM.
As to `C[C@@H](Nc1ncnc2c1cc(C(=O)N1C3CCC1COC3)c(=O)n2C)c1cccc(C(F)F)c1F` [Example 26-12], the IC50 in assay [1] was 107 nM; in assay [3] (setting [4]) it was 861 nM. Binding in assay [2] was put at a Kd of 158 nM.
For the compound `COC[C@H]1CCCN1C(=O)c1cc2c(N[C@H](C)c3cccc(C(F)F)c3F)ncnc2n(C)c1=O` [Example 26-24], the values for the IC50 in assay [1] and in assay [3] (setting [4]) were 54.1 nM and 794 nM, respectively. Also, in assay [2], binding was characterised by a dissociation constant (Kd) of 160 nM.
In assay [2], `Cc1nc(N[C@H](C)c2cccc(C(F)F)c2F)c2cc(N3CC4(COC4)C3)c(=O)n(C)c2n1` [Example 2-3] returned a Kd of 89 nM. Also, the half-maximal inhibitory concentration (IC50) in assay [3] (setting [4]) is 188 nM.
As for `C[C@@H](Nc1ncnc2c1cc(C(=O)N1CCOCC1)c(=O)n2C)c1cccc(C(F)F)c1F` [Example 26-2], the IC50 was determined as 102 nM in assay [1] and 314 nM in assay [3] (setting [4]). Also, the affinity in assay [2], expressed as Kd, was 118 nM.
`C[C@@H](Nc1ncnc2c1cc(-c1cnc(F)nc1)c(=O)n2C)c1cccc(C(F)F)c1F` [Example 21-5]: the IC50 in assay [1] was determined as 126 nM. In assay [2], this compound had a Kd of 115 nM.
`CC(=O)N1CC=C(c2cc3c(N[C@H](C)c4cccc(C(F)F)c4F)nc(C)nc3n(C)c2=O)CC1` [Example 1-21]: the IC50 in assay [1] was 95.6 nM; in assay [3] (setting [4]) it was 173 nM. In assay [2], this compound showed an equilibrium dissociation constant (Kd) of 137 nM.
In assay [1], `C[C@@H](Nc1ncnc2c1cc(-c1cncnc1)c(=O)n2C)c1cccc(C(F)F)c1F` [Example 21-2] had an IC50 of 42.9 nM. In assay [2], this compound had a Kd of 85.4 nM.
In assay [1], `COc1ncccc1-c1cc2c(N[C@H](C)c3cccc(C(F)F)c3F)ncnc2n(C)c1=O` [Example 21-7] displayed an IC50 of 47.1 nM. The compound further gave a Kd in assay [2] of 92.5 nM.
Consider `Cc1nc(N[C@H](C)c2cccc(C(F)F)c2F)c2cc(N3CC(F)(F)C3)c(=O)n(C)c2n1` [Example 2-2], for which the results for the IC50 in assay [1] and in assay [3] (setting [4]) were 2080 nM and 427 nM, respectively.
The compound `Cc1nc(N[C@H](C)c2cccc(C(F)F)c2F)c2cc(C3CCN(CC(F)(F)F)CC3)c(=O)n(C)c2n1` [Example 8-17] registered an IC50 in assay [1] of 708 nM. The Kd in assay [2] was 796 nM.
The compound `C[C@@H](Nc1ncnc2c1cc(C1CCN(C3COC3)CC1)c(=O)n2C)c1cccc(C(F)F)c1F` [Example 8-8] came in with an IC50 in assay [1] of 30.5 nM. This compound gave a Kd in assay [2] of 62 nM.
Consider `COc1ccc(Cc2cc3c(N[C@H](C)c4cccc(C(F)F)c4F)nc(C)nc3n(C)c2=O)cc1OC` [Example 20-1], for which the IC50 in assay [1] stood at 6170 nM.
As for `C[C@@H](Nc1ncnc2c1cc(C1CCN(S(C)(=O)=O)CC1)c(=O)n2C)c1cccc(C(F)F)c1F` [Example 8-15], in assay [1], the midpoint of inhibition, the IC50, lay at 40.1 nM. For the same compound, the Kd in assay [2] is 90.4 nM.
The corresponding values for `C[C@@H](Nc1ncnc2c1cc(-c1ccc3nonc3c1)c(=O)n2C)c1cccc(C(F)F)c1F` [Example 21-8] are 235 nM and 336 nM.
Take `C[C@@H](Nc1ncnc2c1cc(C1CCN(CC(F)(F)F)CC1)c(=O)n2C)c1cccc(C(F)F)c1F` [Example 8-16]: in assay [1], the half-inhibitory concentration (IC50) is 77.5 nM. The compound further showed a Kd in assay [2] of 136 nM.
The corresponding values for `CC(=O)N1CCC(c2cc3c(N[C@H](C)c4cccc(C(F)F)c4F)nc(C)nc3n(C)c2=O)CC1` [Example 8-9] are 53.6 nM and 120 nM.
In assay [2], `Cc1nc(N[C@H](C)c2cccc(C(F)F)c2F)c2cc(C3=CCCOC3)c(=O)n(CCO)c2n1` [Example 11-1] came in with a Kd of 81.3 nM. In other words, the double-digit nanomolar range.
In assay [1], `C[C@@H](Nc1ncnc2c1cc(C1CCS(=O)(=O)CC1)c(=O)n2C)c1cccc(C(F)F)c1F` [Example 8-5] displayed an IC50 of 12.8 nM. This compound showed a Kd in assay [2] of 37.6 nM.
`C[C@@H](Nc1ncnc2c1cc(-c1ccccc1C#N)c(=O)n2C)c1cccc(C(F)F)c1F` [Example 21-6]: the IC50 in assay [1] is 86.4 nM. In assay [2], binding was characterised by a dissociation constant (Kd) of 118 nM.
The compound `C[C@@H](Nc1ncnc2c1cc(C1CCN(CC(F)F)CC1)c(=O)n2C)c1cccc(C(F)F)c1F` [Example 8-13] returned an IC50 in assay [1] of 39.8 nM. Further, in assay [2], the Kd is 156 nM.
Regarding `COC1(c2cc3c(N[C@H](C)c4cccc(C(F)F)c4F)nc(C)nc3n(C)c2=O)CCN(C(C)=O)CC1` [Example 32-32], the IC50 was 4.77 nM in assay [1] and 9.79 nM in assay [3] (setting [4]).
Turning to `Cc1nc(N[C@H](C)c2cccc(C(F)F)c2F)c2cc(-c3ccnnc3)c(=O)n(C)c2n1` [Example 21-3], half-maximal inhibition in assay [1] (IC50) required 120 nM. In addition, in assay [2], the Kd came to 330 nM.
Consider `C[C@@H](Nc1ncnc2c1cc(C(=O)N1CC3CC1CO3)c(=O)n2C)c1cccc(C(F)F)c1F` (stereo partly shown) [Example 26-6], for which the IC50 in assay [1] is greater than 20000 nM; in assay [3] (setting [4]) it was 8830 nM.
In assay [1], `COc1cccc(Cc2cc3c(N[C@H](C)c4cccc(C(F)F)c4F)nc(C)nc3n(C)c2=O)c1OC` [Example 20] registered an IC50 greater than 20000 nM.
In assay [1], `Cc1nc(N[C@H](C)c2cccc(C(F)F)c2F)c2cc(C3CCS(=O)(=O)CC3)c(=O)n(C)c2n1` [Example 8-12] had an IC50 of 65 nM. In assay [2], this compound yielded a Kd of 83.4 nM.
In the same order, the values of `C[C@@H](Nc1ncnc2c1cc(-c1ccc[nH]1)c(=O)n2C)c1cccc(C(F)F)c1F` [Example 21-1] are 1070 nM and 1160 nM.
`Cc1nc(N[C@H](C)c2cccc(C(F)F)c2F)c2cc(C3CCN(C4COC4)CC3)c(=O)n(C)c2n1` [Example 8-14] displayed an IC50 in assay [1] of 81.2 nM. This compound also registered a Kd in assay [2] of 200 nM.
In the case of `Cc1nc(N[C@H](C)c2cccc(C(F)F)c2F)c2cc(C(=O)N3CCOCC3)c(=O)n(C)c2n1` [Example 26, 4-{[(1R)-1-[3-(difluoromethyl)-2-fluorophenyl]ethyl]amino}-2,8-dimethyl-6-(morpholine-4-carbonyl)-7H,8H-pyrido[2,3-d]pyrimidin-7-one], in assay [3] (setting [4]), the IC50 is 388 nM.
Consider `C[C@@H](Nc1ncnc2c1cc(C1=CCS(=O)(=O)CC1)c(=O)n2C)c1cccc(C(F)(F)C#N)c1` [Example 40, 2-{3-[(1R)-1-{[6-(1,1-dioxo-3,6-dihydro-2H-1λ^6-thiopyran-4-yl)-8-methyl-7-oxo-7H,8H-pyrido[2,3-d]pyrimidin-4-yl]amino}ethyl]phenyl}-2,2-difluoroacetonitrile], for which the IC50 in assay [3] (setting [4]) was found to be 1370 nM.
In the case of `C[C@@H](Nc1ncnc2c1cc(C1(F)CCP(C)(=O)CC1)c(=O)n2C)c1cccc(C(F)F)c1F` (stereo partly shown) [Example 29-10], the IC50 in assay [3] (setting [5]) is 140 nM.
`C[C@@H](Nc1ncnc2c1cc(C1(F)CCP(C)(=O)CC1)c(=O)n2C)c1cccc(C(F)F)c1F` (stereo partly shown) [Example 29-9]: the IC50 in assay [3] (setting [4]) stood at 163 nM.
With `C[C@@H](Nc1ncnc2c1cc(C1(F)CCS(=O)(=O)CC1)c(=O)n2C)c1cccc(C(F)F)c1F` [Example 29, 4-(4-{[(1R)-1-[3-(difluoromethyl)-2-fluorophenyl]ethyl]amino}-8-methyl-7-oxo-7H,8H-pyrido[2,3-d]-pyrimidin-6-yl)-4-fluoro-1λ^6-thiane-1,1-dione], the IC50 in assay [3] (setting [4]) turned out to be 34.6 nM.
With `C[C@@H](Nc1ncnc2c1cc(C1(N)CCC3(CC1)CS(=O)(=O)C3)c(=O)n2C)c1cccc(C(F)F)c1F` [Example 31-5], the IC50 in assay [3] (Homo sapiens, PC-9, 1 h) is 26.7 nM.
`C[C@@H](Nc1ncnc2c1cc(C1(O)CC3CCC(C1)S3(=O)=O)c(=O)n2C)c1cccc(C(F)F)c1F` (stereo partly shown) [Example 28-5]: the IC50 in assay [3] (setting [4]) is 157 nM.
Turning to `CO[C@]1(c2cc3c(N[C@H](C)c4cccc(C(F)F)c4F)ncnc3n(C)c2=O)CCN(C(C)=O)C1` [Example 32-19], in assay [3] (setting [4]), the IC50 was 11.3 nM.
As for `C[C@@H](Nc1ncnc2c1cc(C1(O)CS(=O)(=O)C1)c(=O)n2C)c1cccc(C(F)F)c1F` [Example 28-7], the IC50 in assay [3] (setting [4]) amounted to 322 nM.
With `CC1CC(c2cc3c(N[C@H](C)c4cccc(C(F)F)c4F)ncnc3n(C)c2=O)CCS1(=O)=O` (stereo partly shown) [Example 33-12], the IC50 in assay [3] (setting [5]) was 40.7 nM.
Regarding `C[C@@H](Nc1ncnc2c1cc(C1(C#N)CN(S(C)(=O)=O)C1)c(=O)n2C)c1cccc(C(F)F)c1F` [Example 36-7], the IC50 in assay [3] (setting [4]) was determined as 772 nM.
For the compound `C[C@@H](Nc1ncnc2c1cc(C1CCP(C)(=O)CC1)c(=O)n2C)c1cccc(C(F)F)c1F` (stereo partly shown) [Example 33-23], in assay [3] (setting [5]), the IC50 turned out to be 85.4 nM.
For the compound `CC1CC(c2cc3c(N[C@H](C)c4cccc(C(F)F)c4F)ncnc3n(C)c2=O)CCS1(=O)=O` (stereo partly shown) [Example 33-8], the IC50 in assay [3] (setting [5]) came to 54.7 nM.
On to `C[C@@H](Nc1ncnc2c1cc(C1CCS(=O)(=NC3CC3)CC1)c(=O)n2C)c1cccc(C(F)F)c1F` (single isomer, unassigned) [Example 64-2], for which the IC50 in assay [3] (setting [5]) came out at 494 nM.
For the compound `CO[C@]1(c2cc3c(N[C@H](C)c4cccc(C(F)F)c4F)ncnc3n(C)c2=O)CCN(C(C)=O)[C@H](C)C1` [Example 32-51], in assay [3] (setting [4]), the IC50 worked out at 5.79 nM.
Consider `Cc1nc(N[C@H](C)c2cccc(C(F)F)c2F)c2cc(C3CCNCC3)c(=O)n(C)c2n1` [Example 1-31], for which the IC50 in assay [3] (setting [4]) came to 568 nM.
For the compound `COC1(c2cc3c(N[C@H](C)c4cccc(C(F)F)c4F)ncnc3n(C)c2=O)CCN(C(C)=O)C1` (stereo partly shown) [Example 32-9], the IC50 in assay [3] (setting [4]) was 16.3 nM.

As a reminder, the IC50 is the concentration needed to halve the response being measured. A word on the Kd: it is a measure of binding affinity in units of concentration. High values mean lower affinity, low ones higher affinity.
